From ChEMBL document CHEMBL5725558, “BTK Inhibitors” (2017)

Molecular target: Tyrosine-protein kinase BTK (Homo sapiens, UniProt Q06187)
Experiment: Phosphorylation reactions were allowed to proceed for 120 minutes. […] After 60 minutes incubation with detection reagents, reaction plates were read on a PerkinElmer EnVision plate reader using standard TR-FRET protocol. […] IC50 values were determined by 4 parameter robust fit of TR-FRET ratio values vs. (Log10) compound concentrations.

Tyrosine-protein kinase BTK, sequence (Q06187 whole entry): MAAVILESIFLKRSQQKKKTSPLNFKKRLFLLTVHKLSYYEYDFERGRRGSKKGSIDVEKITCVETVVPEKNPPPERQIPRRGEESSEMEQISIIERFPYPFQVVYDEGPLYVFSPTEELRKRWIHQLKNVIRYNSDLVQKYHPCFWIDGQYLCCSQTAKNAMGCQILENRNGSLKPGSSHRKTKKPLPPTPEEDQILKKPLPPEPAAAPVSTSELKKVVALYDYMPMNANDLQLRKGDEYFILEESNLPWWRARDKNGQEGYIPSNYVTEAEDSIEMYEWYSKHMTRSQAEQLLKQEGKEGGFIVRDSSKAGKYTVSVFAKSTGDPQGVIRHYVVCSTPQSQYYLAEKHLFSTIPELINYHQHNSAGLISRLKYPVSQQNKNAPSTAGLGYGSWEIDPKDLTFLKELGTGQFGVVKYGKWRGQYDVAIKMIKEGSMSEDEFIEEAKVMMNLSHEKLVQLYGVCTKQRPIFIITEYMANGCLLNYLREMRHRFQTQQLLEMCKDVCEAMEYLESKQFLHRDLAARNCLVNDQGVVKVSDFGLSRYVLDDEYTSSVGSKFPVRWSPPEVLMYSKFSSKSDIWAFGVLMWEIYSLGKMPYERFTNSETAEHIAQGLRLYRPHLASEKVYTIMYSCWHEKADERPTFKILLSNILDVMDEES

- IC50: < 10 nM
SMILES: CC(=O)N1CCC[C@@H](c2nc(-c3ccc(C(=O)Nc4cc(C)ccn4)cc3)c3c(N)nccn23)C1
